Laboratory results: patent publication US10851064B2, “ACSS2 inhibitors and methods of use thereof” (METABOMED LTD., priority 2017, dated 2020)

biological target: ACSS2 (Homo sapiens, UniProt Q9NR19); assay: biochemical
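Also: Cell-free human ACSS2 enzyme reaction with acetate, CoA and ATP, 90 min at 37 C, coupled to pyrophosphatase, phosphate release detected by Biomol Green absorbance at 620 nm.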
Method: ACSS2 Cell-Free Activity Assay (Cell-Free IC50)
The assay is based on a coupling reaction with Pyrophosphatase: ACSS2 is converting ATP+CoA+Acetate=>AMP+pyrophosphate+Acetyl-CoA (Ac-CoA). Pyrophosphatase converts pyrophosphate, a product of the ACSS2 reaction, to phosphate which can be detected by measuring the absorbance at 620 nm after incubation with the Biomol green reagent (Enzo life Science, BML-AK111).
Cell-free IC50 Determination:
At the end of the reaction, Biomol Green was added for 30 minutes at RT and the activity was measured by reading the absorbance at 620 nm.

Sequence of ACSS2 (Q9NR19 whole entry): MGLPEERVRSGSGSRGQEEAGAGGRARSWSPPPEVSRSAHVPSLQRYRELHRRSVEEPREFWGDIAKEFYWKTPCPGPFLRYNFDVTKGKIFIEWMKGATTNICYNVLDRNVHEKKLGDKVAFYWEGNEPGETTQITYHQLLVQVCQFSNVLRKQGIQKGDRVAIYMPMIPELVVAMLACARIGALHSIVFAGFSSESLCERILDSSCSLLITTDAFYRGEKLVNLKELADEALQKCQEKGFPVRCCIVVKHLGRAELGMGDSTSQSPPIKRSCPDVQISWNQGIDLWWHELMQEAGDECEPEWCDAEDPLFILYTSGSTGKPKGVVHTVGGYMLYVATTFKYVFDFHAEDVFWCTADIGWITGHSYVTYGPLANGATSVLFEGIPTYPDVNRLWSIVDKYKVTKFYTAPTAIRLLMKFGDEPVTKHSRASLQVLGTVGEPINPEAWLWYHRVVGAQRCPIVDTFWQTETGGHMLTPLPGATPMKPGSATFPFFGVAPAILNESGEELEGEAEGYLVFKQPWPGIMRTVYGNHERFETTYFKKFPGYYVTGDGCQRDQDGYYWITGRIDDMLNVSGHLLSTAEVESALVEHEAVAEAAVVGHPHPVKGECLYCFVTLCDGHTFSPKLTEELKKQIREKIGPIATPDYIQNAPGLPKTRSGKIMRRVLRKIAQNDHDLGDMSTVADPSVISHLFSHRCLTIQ

| SMILES | IC50 |
| --- | --- |
| CC1=NN(c2ccccc2)C(=O)C1C(=O)Nc1ccc2c(c1)C(=O)OC2 (centres unmarked) [compound 122, 3-methyl-5-oxo-N-(3-oxo-1,3-dihydroisobenzofuran-5-yl)-1-phenyl-4,5-dihydro-1H-pyrazole-4-carboxamide] | 1000 to 100000 nM |
| CC1=NN(c2cc(C)cc(-c3ncco3)c2)C(=O)C1C(=O)Nc1cccc(C(C)(F)F)c1 (centres unmarked) [compound 420] | 0.01 to 6 nM |
| CC1=NN(c2cc(-c3ccccc3)cc(-c3ccsc3)c2)C(=O)C1C(=O)Nc1cccc(C(C)(F)F)c1 (centres unmarked) [compound 372] | 0.01 to 6 nM |
| CC1=NN(C2CCN(C)CC2)C(=O)C1C(=O)Nc1ccccc1 (centres unmarked) [compound 221, 3-methyl-1-(1-methylpiperidin-4-yl)-5-oxo-N-phenyl-4,5-dihydro-1H-pyrazole-4-carboxamide] | > 100000 nM |
| COc1ccc(N2N=C(C)C(C(=O)Nc3cccc(C4COC4)c3)C2=O)cc1 (centres unmarked) [compound 354] | 6 to 100 nM |
| CC1=NN(c2ccc(OC(F)F)cc2)C(=O)C1NC(=O)c1cccc(C(C)(F)F)c1 (centres unmarked) [compound 341] | 100 to 1000 nM |
| COc1ccc(N2N=C(C)C(C(=O)Nc3cccc(C(C)(F)F)c3)C2=O)cc1-c1ncc(C)o1 (centres unmarked) [compound 352] | 0.01 to 6 nM |
| CC1=NN(c2cccc(C#CCN)c2)C(=O)C1C(=O)Nc1cccc(C(C)(F)F)c1 (centres unmarked) [compound 356] | 6 to 100 nM |
| CC1=NN(c2ccc(OC(F)F)c(-c3cccnc3)c2)C(=O)C1C(=O)Nc1cccc(C(C)(F)F)c1 (centres unmarked) [compound 455] | 0.01 to 6 nM |
| CC(=O)c1ccc(NC(=O)C2C(=O)N(c3ccccc3)N=C2C)cc1 (centres unmarked) [compound 203, N-(4-acetylphenyl)-3-methyl-5-oxo-1-phenyl-4,5-dihydro-1H-pyrazole-4-carboxamide] | 1000 to 100000 nM |
| CC1=NN(c2ccc(C3COC3)cc2)C(=O)C1C(=O)Nc1cccc(C(C)(F)F)c1 (centres unmarked) [compound 348] | 6 to 100 nM |
| COc1ccc(N2N=C(C)C(C(=O)Nc3cccc(C(C)(F)F)c3)C2=O)c(F)c1 (centres unmarked) [compound 451] | 0.01 to 6 nM |
| CC1=NN(c2ccccc2)C(=O)C1C(=O)Nc1ccccn1 (centres unmarked) [compound 214, 3-methyl-5-oxo-1-phenyl-N-(pyridin-2-yl)-4,5-dihydro-1H-pyrazole-4-carboxamide] | > 100000 nM |
| COc1ccc(N2N=C(C)C(C(=O)Nc3cccc(-c4ncco4)c3)C2=O)cc1 (centres unmarked) [compound 256] | 6 to 100 nM |
| CCC(F)(F)c1cccc(NC(=O)C2C(=O)N(c3ccc4cc[nH]c4c3)N=C2C)c1 (centres unmarked) [compound 369] | 0.01 to 6 nM |
| CC1=NN(c2ccc(OC(F)(F)F)cc2)C(=O)C1C(=O)Nc1cc(C(C)(F)F)cs1 (centres unmarked) [compound 296] | 6 to 100 nM |
| Cc1c(C(=O)Nc2ccccc2)c(=O)n(-c2ccccc2)n1C [compound 190, 1,5-dimethyl-3-oxo-N,2-diphenyl-2,3-dihydro-1H-pyrazole-4-carboxamide] | > 100000 nM |
| CC1=NN(c2ccccc2)C(=O)C1C(=O)Nc1cccc(-c2cccs2)c1 (centres unmarked) [compound 101, 3-methyl-5-oxo-1-phenyl-N-(3-(thiophen-2-yl)phenyl)-4,5-dihydro-1H-pyrazole-4-carboxamide] | 6 to 100 nM |
| CC1=NN(c2ccc(OC(F)F)cc2)C(=O)C1C(=O)N(C)c1cc(C)cc(Cl)c1 (centres unmarked) [compound 393] | 100 to 1000 nM |
| CC1=NN(c2ccc(Br)cc2)C(=O)C1C(=O)Nc1cccc(C(C)(F)F)c1 (centres unmarked) [compound 422] | 0.01 to 6 nM |

| SMILES | IC50 |
| --- | --- |
| CC1=NN(c2ccccc2)C(=O)C1C(=O)Nc1cccc(CN(C)C)c1 (centres unmarked) [compound 131, N-(3-((dimethylamino)methyl)phenyl)-3-methyl-5-oxo-1-phenyl-4,5-dihydro-1H-pyrazole-4-carboxamide] | 1000 to 100000 nM |
| CCCc1cc(-c2ccccc2)cc(N2N=C(C)C(C(=O)Nc3cccc(C(C)(F)F)c3)C2=O)c1 (centres unmarked) [compound 400] | 6 to 100 nM |
| CCc1cccc(NC(=O)C2C(=O)N(c3ccc(OCC4CC4)cc3)N=C2C)c1 (centres unmarked) [compound 143, 1-(4-(cyclopropylmethoxy)phenyl)-N-(3-ethylphenyl)-3-methyl-5-oxo-4,5-dihydro-1H-pyrazole-4-carboxamide] | 6 to 100 nM |
| CC1=NN(c2cc(Cc3ccc(Cl)cc3)cc(-c3ccccc3)c2)C(=O)C1C(=O)Nc1cccc(C(C)(F)F)c1 (centres unmarked) [compound 376] | 6 to 100 nM |
| CC1=NN(c2ccc3[nH]ccc3c2)C(=O)C1C(=O)Nc1cccc(C(C)(F)F)c1 (centres unmarked) [compound 419] | 0.01 to 6 nM |
| COc1ccc(N2N=C(C)C(C(=O)Nc3cccc(C(C)(F)F)c3)C2=O)cc1-c1ccccn1 (centres unmarked) [compound 434] | 0.01 to 6 nM |
| CC1=NN(c2ccccc2)C(=O)C1C(=O)Nc1cccc(CN)c1 (centres unmarked) [compound 223, N-(3-(aminomethyl)phenyl)-3-methyl-5-oxo-1-phenyl-4,5-dihydro-1H-pyrazole-4-carboxamide] | 1000 to 100000 nM |
| CC(=O)NS(=O)(=O)c1cc(N2N=C(C)C(C(=O)Nc3cccc(-c4ccco4)c3)C2=O)ccc1OC(F)(F)F (centres unmarked) [compound 299] | 6 to 100 nM |
| COc1ccc(N2N=C(C)C(C(=O)Nc3ccccc3)C2=O)cc1 (centres unmarked) [compound 197, 1-(4-methoxyphenyl)-3-methyl-5-oxo-N-phenyl-4,5-dihydro-1H-pyrazole-4-carboxamide] | 1000 to 100000 nM |
| CC1=NN(c2ccc(S(=O)(=O)N(C)C)cc2)C(=O)C1C(=O)Nc1cccc(-c2ncco2)c1 (centres unmarked) [compound 254] | 100 to 1000 nM |
| CC1=NN(c2cccc(C(=O)OC(C)C)c2)C(=O)C1C(=O)Nc1cccc(-c2ncco2)c1 (centres unmarked) [compound 238] | 6 to 100 nM |
| CCCc1cc(-c2cccnc2)cc(N2N=C(C)C(C(=O)Nc3cccc(C(C)(F)F)c3)C2=O)c1 (centres unmarked) [compound 399] | 0.01 to 6 nM |
| CC1=NN(c2cccc(C#CCNC(=O)CCCC(=O)Nc3ccc4c(c3)C(=O)N(C3CCC(=O)NC3=O)C4=O)c2)C(=O)C1C(=O)Nc1cccc(C(C)(F)F)c1 (centres unmarked) [compound 382] | 0.01 to 6 nM |
| CC1=NN(c2cccc(Br)c2)C(=O)C1C(=O)Nc1cccc(C(C)(F)F)c1 (centres unmarked) [compound 404] | 0.01 to 6 nM |
| CCCCCc1cccc(NC(=O)C2C(=O)N(c3ccccc3)N=C2C)c1 (centres unmarked) [compound 118, 3-methyl-5-oxo-N-(3-pentylphenyl)-1-phenyl-4,5-dihydro-1H-pyrazole-4-carboxamide] | 1000 to 100000 nM |
| CC1=NN(c2ccccn2)C(=O)C1C(=O)Nc1ccccc1 (centres unmarked) [compound 192, 5-hydroxy-3-methyl-N-phenyl-1-(pyridin-2-yl)-1H-pyrazole-4-carboxamide] | > 100000 nM |
| CC(=O)c1cccc(NC(=O)C2C(=O)N(c3cccc(C(=O)O)c3)N=C2C)c1 (centres unmarked) [compound 123, 3-(4-((3-acetylphenyl)carbamoyl)-3-methyl-5-oxo-4,5-dihydro-1H-pyrazol-1-yl)benzoic acid] | 100 to 1000 nM |
| CC1=NN(c2ccc(OC(F)F)cc2)C(=O)C1C(=O)Nc1cccc(C(C)(F)C(C)C)c1 (centres unmarked) [compound 409] | 100 to 1000 nM |
| CC1=NN(c2ccc(S(=O)(=O)N(C)C)cc2)C(=O)C1C(=O)Nc1cccc(-c2cnccn2)c1 (centres unmarked) [compound 262] | 6 to 100 nM |
| CNC(=O)C1C(=O)N(c2ccccc2)N=C1C (centres unmarked) [compound 199, N,3-dimethyl-5-oxo-1-phenyl-4,5-dihydro-1H-pyrazole-4-carboxamide] | > 100000 nM |

| SMILES | IC50 |
| --- | --- |
| CC1=NN(c2ccccc2)C(=O)C1C(=O)NC1CCNCC1 (centres unmarked) [compound 121, 3-methyl-5-oxo-1-phenyl-N-(4-piperidyl)-4H-pyrazole-4-carboxamide] | 1000 to 100000 nM |
| CCc1cccc(NC(=O)C2C(=O)N(c3ccccc3)N=C2c2ccccn2)c1 (centres unmarked) [compound 156, N-(3-ethylphenyl)-5-oxo-1-phenyl-3-(pyridin-2-yl)-4,5-dihydro-1H-pyrazole-4-carboxamide] | 1000 to 100000 nM |
| COc1cc(Cl)cc(N(C)C(=O)C2C(=O)N(c3ccc(OC(F)F)cc3)N=C2C)c1 (centres unmarked) [compound 392] | 100 to 1000 nM |
| COc1ccc(N2N=C(C)C(C(=O)Nc3cccc(C(C)(F)F)c3)C2=O)cc1-c1nnc(C)o1 (centres unmarked) [compound 430] | 0.01 to 6 nM |
| CC1=NN(c2ccc(C(F)(F)F)cc2)C(=O)C1C(=O)Nc1cccc(-c2ncc[nH]2)c1 (centres unmarked) [compound 148, N-(3-(1H-imidazol-2-yl)phenyl)-3-methyl-5-oxo-1-(4-(trifluoromethyl)phenyl)-4,5-dihydro-1H-pyrazole-4-carboxamide] | 6 to 100 nM |
| CC1=NN(c2ccccc2)C(=O)C1C(=O)NC(C)C (centres unmarked) [compound 200, N-isopropyl-3-methyl-5-oxo-1-phenyl-4,5-dihydro-1H-pyrazole-4-carboxamide] | > 100000 nM |
| CC1=NN(c2ccc(OC(F)F)cc2)C(=O)C1C(=O)N(C)c1cc(F)cc(Cl)c1 (centres unmarked) [compound 394] | 100 to 1000 nM |
| CC1=NN(c2ccccc2)C(=O)C1C(=O)Nc1cccnc1 (centres unmarked) [compound 191, 3-methyl-5-oxo-1-phenyl-N-(pyridin-3-yl)-4,5-dihydro-1H-pyrazole-4-carboxamide] | 1000 to 100000 nM |
| COc1ccc(N2N=C(C)C(C(=O)Nc3cccc(C(C)(F)F)c3)C2=O)c(C)c1 (centres unmarked) [compound 302] | 100 to 1000 nM |
| CC1=NN(c2ccc(OC(F)F)c(-c3ccccn3)c2)C(=O)C1C(=O)Nc1cccc(C(C)(F)F)c1 (centres unmarked) [compound 438] | 0.01 to 6 nM |
| CC1=NN(c2cccc(S(=O)(=O)N(C)C)c2)C(=O)C1C(=O)Nc1cccc(-c2cnccn2)c1 (centres unmarked) [compound 272] | 6 to 100 nM |
| CC1=NN(c2ccccc2)C(=O)C1C(=O)Nc1cccc(-c2nnc[nH]2)c1 (centres unmarked) [compound 174] | 100 to 1000 nM |
| CC1=NN(c2ccc(OC(F)F)c(-c3ncc(C)o3)c2)C(=O)C1C(=O)Nc1cccc(C(C)(F)F)c1 (centres unmarked) [compound 415] | 0.01 to 6 nM |
| COc1ccc(N2N=C(C)C(C(=O)Nc3cccc(C(C)(F)F)c3)C2=O)cc1-c1cnccn1 (centres unmarked) [compound 433] | 0.01 to 6 nM |
| CC1=NN(c2ccc3ccn(C(C)C)c3c2)C(=O)C1C(=O)Nc1cccc(C(C)(F)F)c1 (centres unmarked) [compound 364] | 0.01 to 6 nM |
| CC1=NN(c2ccc(OC(F)F)c(-c3ccncc3)c2)C(=O)C1C(=O)Nc1cccc(C(C)(F)F)c1 (centres unmarked) [compound 450] | 0.01 to 6 nM |
| CCc1cccc(NC(=O)C2C(=O)N(c3ccncc3)N=C2C)c1 (centres unmarked) [compound 125, N-(3-ethylphenyl)-3-methyl-5-oxo-1-(pyridin-4-yl)-4,5-dihydro-1H-pyrazole-4-carboxamide] | 100 to 1000 nM |
| CC1=NN(c2ccccc2)C(=O)C1C(=O)Nc1cccc(C(C)(C)C)c1 (centres unmarked) [compound 115, N-(3-(tert-butyl)phenyl)-3-methyl-5-oxo-1-phenyl-4,5-dihydro-1H-pyrazole-4-carboxamide] | 100 to 1000 nM |
| COc1ccc(N2N=C(C)C(C(=O)NCc3ccccc3)C2=O)cc1 (centres unmarked) [compound 358] | 100 to 1000 nM |
